≈ marks a conversion by molar mass, not a printed value.
Assay: Glibenclamide solubility in infusion fluids by HPLC, excess drug shaken 24 hours (Table 4)
Type: physicochemical
Conditions: thermodynamic from solid, 24 hours ambient
Procedure: The solubility of glibenclamide was determined by high pressure liquid chromatography (HPLC) in a variety of infusion fluids. Excess glibenclamide was shaken with the vehicle for 24 hours at ambient temperature and the glibenclamide content of the supernatant determined by HPLC.
The following infusion vehicles were assessed in these experiments:
1.) 0.9% NaCl at the lowest end of the pH specification (pH 4.5) containing a 50-fold dilution of the PEG/ethanol/meglumine 10 mM pH 9.0 formulation.
2.) 0.9% NaCl at the lowest end of the pH specification (pH 4.5) containing a 50-fold dilution of the PEG/ethanol/diethanolamine 10 mM pH 9.0 formulation.
3.) 0.9% NaCl at the lowest end of the pH specification (pH 4.5) containing a 50-fold dilution of the PEG/ethanol/TRIS 10 mM pH 9.0 formulation.
4.) 0.9% NaCl at the lowest end of the pH specification (pH 4.5).
5.) 0.9% NaCl at the highest end of the pH specification (pH 7.0).
6.) 0.9% NaCl ‘as is’ (pH 5.8).
7.) 0.9% NaCl at the lowest end of the pH specification (pH 4.5) containing a 50-fold dilution of the PEG/ethanol formulation (without buffer or pH adjustment).
8.) 0.9% NaCl at the highest end of the pH specification (pH 7.0) containing a 50-fold dilution of the PEG/ethanol formulation (without buffer or pH adjustment).

COc1ccc(Cl)cc1C(=O)NCCc1ccc(S(=O)(=O)NC(=O)NC2CCCCC2)cc1 [Glibenclamide, N-p-(2-[5-Chloro-2-methoxybenzamido]ethyl) benzenesulfonyl-N′-cyclohexylurea] gave a solubility at 24 h (0.9% NaCl infusion fluid, pH 7.8, saline or isotonic, 0.9% NaCl 'as is' (pH 5.8), actual pH 7.80) of 0.15 mg/mL (≈ 304 µM), a solubility at 24 h (0.9% NaCl infusion fluid, saline or isotonic, 0.9% NaCl at pH 4.5, actual pH 7.72) of 0.08 mg/mL (≈ 162 µM) and a solubility at 24 h (0.9% NaCl infusion fluid, saline or isotonic, 0.9% NaCl at pH 7.0, actual pH 7.75) of 0.12 mg/mL (≈ 243 µM). For the same compound, the solubility at 24 h (pH 7.9, saline or isotonic, NaCl at pH 7.0 + PEG/EtOH, no buffer (50-fold dilution), actual pH 7.90) was 0.14 mg/mL, the solubility at 24 h (saline or isotonic, NaCl at pH 4.5 + PEG/EtOH, no buffer (50-fold dilution), actual pH 7.64) was 0.1 mg/mL and the solubility at 24 h (saline or isotonic, NaCl at pH 4.5 + PEG/EtOH/Diethanolamine 10 mM, pH 9.0 (50-fold dilution), actual pH 8.19) was 0.13 mg/mL. For the same compound, the solubility at 24 h (saline or isotonic, NaCl at pH 4.5 + PEG/EtOH/Meglumine 10 mM, pH 9.0 (50-fold dilution), actual pH 7.92) was 0.15 mg/mL and the solubility at 24 h (saline or isotonic, NaCl at pH 4.5 + PEG/EtOH/TRIS 10 mM, pH 9.0 (50-fold dilution), actual pH 7.89) was 0.15 mg/mL.

From US10688111B2, “Liquid formulations of compounds active at sulfonylurea receptors” (Biogen Chesapeake LLC, priority 2008, dated 2020)
